Series [1] concerns the target T1, recombinant human Meningioma Expressed Antigen 5 (MGEA5), also referred to as O-GlcNAcase (OGA) (Homo sapiens, UniProt O60502).
T1 construct: Full length OGA enzyme was purchased at OriGene (cat #TP322411); purchased OriGene TP322411
T1 sequence (O60502 1-916): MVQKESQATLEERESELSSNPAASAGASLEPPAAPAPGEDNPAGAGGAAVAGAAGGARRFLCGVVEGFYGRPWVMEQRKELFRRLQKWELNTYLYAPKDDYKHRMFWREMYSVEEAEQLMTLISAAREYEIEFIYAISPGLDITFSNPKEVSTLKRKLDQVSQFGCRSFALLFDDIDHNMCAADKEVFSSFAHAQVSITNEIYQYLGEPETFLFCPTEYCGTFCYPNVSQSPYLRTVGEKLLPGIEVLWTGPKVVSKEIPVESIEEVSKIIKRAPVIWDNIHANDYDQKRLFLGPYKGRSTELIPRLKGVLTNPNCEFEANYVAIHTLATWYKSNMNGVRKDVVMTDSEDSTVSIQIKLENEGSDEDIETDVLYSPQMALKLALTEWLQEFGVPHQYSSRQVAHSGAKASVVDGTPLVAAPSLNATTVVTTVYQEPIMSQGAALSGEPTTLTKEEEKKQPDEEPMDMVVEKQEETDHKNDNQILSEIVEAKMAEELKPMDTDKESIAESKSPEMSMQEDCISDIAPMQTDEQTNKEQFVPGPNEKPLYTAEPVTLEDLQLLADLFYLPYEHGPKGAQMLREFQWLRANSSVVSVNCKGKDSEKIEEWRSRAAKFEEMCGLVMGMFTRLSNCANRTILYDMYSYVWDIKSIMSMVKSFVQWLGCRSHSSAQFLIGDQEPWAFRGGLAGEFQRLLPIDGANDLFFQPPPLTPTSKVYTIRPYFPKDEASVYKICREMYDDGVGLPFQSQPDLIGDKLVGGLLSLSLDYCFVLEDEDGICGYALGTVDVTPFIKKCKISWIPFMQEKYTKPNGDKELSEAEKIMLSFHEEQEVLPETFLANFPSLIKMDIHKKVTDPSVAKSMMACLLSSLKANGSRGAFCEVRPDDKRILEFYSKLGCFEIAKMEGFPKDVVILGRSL
Nature of the series: OGA biochemical assay (inhibition of FM-GlcNAc hydrolysis, fluorescence). Particulars: FM-GlcNAc substrate; for IC50: 6 h at room temperature, read-out: Enzymatic hOGA, pIC50 (converted); for Emax / Enzymatic Emax (%): maximal effect; for Emax: read-out: Enzymatic Emax (%). In outline:
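Full-length human OGA (2 nM) pre-incubated 60 min at room temperature with compound, then FM-GlcNAc (100 µM final) added in citrate/phosphate buffer pH 7.2 with 0.005% Tween-20; 6 h at room temperature, stopped with carbonate pH 11.0. Fluorescein read at 485/538 nm; IC50 and Hill coefficient from curve fit.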

A further series has as its target T2, OGA (Homo sapiens, UniProt O60502).
T2 construct: endogenous in cells; host or cells: HEK293 cells inducible for P301L mutant human Tau (isoform 2N4R)
T2 sequence (O60502 1-916): T1 sequence (O60502 1-916)
The experiment in a line: OGA cellular assay (ICC detection of O-GlcNAcylated proteins in HEK293 cells inducible for P301L mutant human Tau). Type of series: cell-based. Particulars: for Emax: HEK293, HEK293 cells inducible for P301L mutant human Tau; for Emax / Cellular Emax (%): maximum defined by Thiamet G at 200 uM; for EC50: read-out: Cellular hOGA, pEC50 (converted). The method in brief:
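HEK293 cells inducible for P301L human Tau (2N4R), in low-glucose medium, treated 6 h with compounds at 0.2% DMSO. After PFA fixation, O-GlcNAcylated proteins immunostained (CTD110.6), intensity imaged at 488 nm, Hoechst nuclei counted for toxicity. IC50 via non-linear regression; Thiamet G 200 uM as maximum.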

Setting [2] is: HEK293 cells inducible for P301L mutant human Tau, 6 hours incubation, ICC O-GlcNAcylation.
Setting [3] is: HEK293 cells inducible for P301L mutant human Tau.

In general, melting point refers to the temperature, or range, at which the solid turns liquid. In general, Emax refers to the maximal effect, on the per cent scale that the assay sets.

Structures are written as SMILES. Counter-ions that a name gives are not always drawn.

With `Cc1cc(C[C@H]2CCN(C(C)c3ccc4c(c3)OCCN4C)C2)cc(C)n1` (stereo partly shown) (as salt: HCl) [Product 1], the melting point was determined as 297.5 °C.

Take `COc1cc(C[C@H]2CCN(C(C)c3ccc4c(c3)OCC4)C2)cc(C)n1` (stereo partly shown) [Product 8]: the IC50 in series [1] is 126 nM. The Emax in series [1] was 101%; at OGA it was 58%. For the same compound, at OGA (setting [2]), the EC50 is 794 nM.

In the case of `COc1cc(C[C@H]2CCN(C(C)c3nc4c(cc3F)OCCO4)C2)cc(C)n1` (stereo partly shown) [Product 16], in series [1], the IC50 was 20 nM and the Emax stood at 102%. For the same compound, the Emax at OGA is 89%. Further, on OGA (setting [2]), the EC50 was 126 nM.

Regarding `Cc1cc(O[C@@H]2CCN(C(C)c3nc4c(cc3F)CCO4)C2)cc(C)n1` (stereo partly shown) [Product 17], in series [1], the IC50 is 2.51 nM and the Emax was found to be 101%. Besides, the Emax on OGA came out at 77%. Moreover, the EC50 at OGA (setting [2]) was 20 nM.

As for `COc1cc(C[C@H]2CCN(C(C)c3cnc4c(c3)OCCN4)C2)cc(C)n1` (stereo partly shown) [Product 20], in series [1], the IC50 was 79.4 nM and the Emax was determined as 101%. The Emax on OGA was 61%. The EC50 on OGA (setting [2]) was 501 nM.

Turning to `Cc1cc(C[C@H]2CCN([C@@H](C)c3cc4c(cc3F)OCCO4)C2)cc(C)n1` [Product 32], in series [1], the IC50 is 15.8 nM and the Emax stood at 101%. Also, the Emax on OGA worked out at 72%. The EC50 at OGA (setting [2]) was 126 nM.

In the case of `Cc1cc(C[C@@H]2CCN(C(C)c3ccc4c(n3)OCCO4)C2)nc(C)n1` (stereo partly shown) [Product 37], in series [1], the IC50 is 251 nM. In addition, the Emax in series [1] was found to be 96%; on OGA, 14%. The EC50 at OGA (setting [2]) is greater than 1000 nM.

Regarding `Cc1cc(O[C@@H]2CCN(C(C)c3nc4c(cc3F)OCCO4)C2)cc(C)n1` (stereo partly shown) [Product 38], in series [1], the IC50 is 20 nM and the Emax stood at 98%. Also, the Emax at OGA was determined as 69%. Also, the EC50 on OGA (setting [2]) was 316 nM.

`Cc1cc(O[C@@H]2CCN(C(C)c3nc4c(cc3F)OCCO4)C2)cc(C)n1` (stereo partly shown) [Product 39]: in series [1], the IC50 was 10 nM and the “Enzymatic Emax (%)” value was determined as 100%. Moreover, the EC50 at OGA (setting [2]) was 251 nM. Moreover, the “Cellular Emax (%)” value on OGA (setting [3]) is recorded as 74%.

As for `COc1cc(C[C@@H]2CCN([C@@H](C)c3cc4c(cc3F)OCCO4)C2)cc(C)n1` [Product 43], in series [1], the IC50 is 15.8 nM and the Emax turned out to be 102%. Moreover, the Emax on OGA was found to be 68%. Besides, on OGA (setting [2]), the EC50 was 398 nM.

Take `Cc1cc(C[C@@H]2CCN([C@@H](C)c3cc4c(cc3F)OCCO4)C2)cc(C)n1` [Product 45]: in series [1], the IC50 is 5.01 nM. For the same compound, the Emax in series [1] amounted to 101%; on OGA, 72%. Besides, the EC50 on OGA (setting [2]) is 100 nM.

Turning to `Cc1cc(OC[C@H]2CCN(C(C)c3ccc4c(n3)OCCO4)C2)cc(C)n1` (stereo partly shown) [Product 47], in series [1], the IC50 is 631 nM and the Emax amounted to 97%. Further, at OGA, the Emax was found to be 9%. For the same compound, the EC50 at OGA (setting [2]) was greater than 1000 nM.

For the compound `COc1cc(OC[C@@H]2CCN(C(C)c3ccc4c(n3)OCCO4)C2)cc(C)n1` (stereo partly shown) [Product 48], in series [1], the IC50 is 1000 nM and the Emax was 91%. Also, the Emax at OGA stood at 1%. Further, the EC50 at OGA (setting [2]) is greater than 1000 nM.

Regarding `Cc1cc(CO[C@H]2CCN(C(C)c3ccc4c(n3)OCCO4)C2)cc(C)n1` (stereo partly shown) [Product 49], the IC50 in series [1] is 5010 nM. Also, the Emax in series [1] is 70%; at OGA, -5%. Further, the EC50 on OGA (setting [2]) is greater than 1000 nM.

For `Cc1cc(OC[C@@H]2CCN(C(C)c3nc4c(cc3F)OCCO4)C2)cc(C)n1` (stereo partly shown) [Product 50], the IC50 in series [1] is 50.1 nM. For the same compound, the Emax in series [1] was found to be 100%; on OGA, 58%. For the same compound, the EC50 on OGA (setting [2]) was 631 nM.

In the case of `CC(c1nc2c(cc1F)OCCO2)N1CC[C@@H](Oc2ccc(C#N)nn2)C1` (stereo partly shown) [Product 53], in series [1], the IC50 was 63.1 nM and the Emax worked out at 93%. Moreover, at OGA, the Emax stood at 43%. Also, the EC50 at OGA (setting [2]) is greater than 1000 nM.

In the case of `Cc1ccc(O[C@H]2CCN(C(C)c3ccc4c(n3)OCCO4)C2)cn1` (stereo partly shown) [Product 56], in series [1], the IC50 is 2510 nM and the Emax came to 83%. Further, the Emax on OGA was 8%. At OGA (setting [2]), the EC50 is greater than 1000 nM.

With `Cc1ccc(O[C@H]2CCN(C(C)c3nc4c(cc3F)OCCO4)C2)cn1` (stereo partly shown) [Product 57], in series [1], the IC50 is 316 nM and the Emax came to 96%. Moreover, the Emax at OGA was determined as 33%. Moreover, at OGA (setting [2]), the EC50 was greater than 1000 nM.

Turning to `Cc1cc(CC2(C)CCN(C(C)c3ccc4c(n3)OCCO4)C2)cc(C)n1` (stereo not shown) [Product 58], in series [1], the IC50 was 316 nM and the Emax stood at 100%. In addition, at OGA, the Emax is 17%. The EC50 on OGA (setting [2]) is greater than 1000 nM.

On to `Cc1cc(CC2(C)CCN(C(C)c3ccc4c(n3)OCCO4)C2)cc(C)n1` (stereo not shown) [Product 59], for which, in series [1], the IC50 is 398 nM and the “Enzymatic Emax (%)” value turned out to be 97%. For the same compound, the “Cellular hOGA; pEC50” value on OGA (setting [2]) is less than 6. Besides, the “Cellular Emax (%)” value on OGA (setting [3]) was determined as 34%.

For the compound `Cc1ncc(O[C@@H]2CCN(C(C)c3ccc4c(n3)OCCO4)C2)cn1` (stereo partly shown) [Product 62], in series [1], the IC50 is 2510 nM and the Emax was 86%. Further, on OGA, the Emax was determined as 1%. Moreover, the EC50 at OGA (setting [2]) was greater than 1000 nM.

For the compound `Cc1cc(O[C@@H]2CCN(C(C)c3nc4c(cc3F)OCCO4)C2)ccn1` (stereo partly shown) [Product 125], in series [1], the IC50 was 158 nM. Moreover, the values for the Emax (in series [1]; at OGA) were 89% and 48%, respectively. At OGA (setting [2]), the EC50 was 501 nM.

For `Cc1ncc(O[C@@H]2CCN(C(C)c3nc4c(cc3F)OCCO4)C2)nc1C` (stereo partly shown) [Product 126], the IC50 in series [1] was 100 nM. Moreover, the Emax was 94% in series [1] and 73% at OGA. Besides, the EC50 on OGA (setting [2]) is 501 nM.

Regarding `CC(c1nc2c(cc1F)OCCO2)N1CC[C@@H](Oc2ccc(C(F)(F)F)nc2)C1` (stereo partly shown) [Product 127], the IC50 in series [1] was 200 nM. Also, the Emax in series [1] worked out at 96%; at OGA, 26%. For the same compound, on OGA (setting [2]), the EC50 was greater than 1000 nM.

Take `Cc1cc(O[C@@H]2CCN(C(C)c3nc4c(cc3F)OCCO4)C2)nc(C)n1` (stereo partly shown) [Product 128]: in series [1], the IC50 was 50.1 nM and the Emax amounted to 95%. The Emax on OGA amounted to 59%. For the same compound, at OGA (setting [2]), the EC50 is 437 nM.

For the compound `Cc1cc(O[C@@H]2CCN(C(C)c3nc4c(cc3F)OCCO4)C2)cnc1C` (stereo partly shown) [Product 129], in series [1], the IC50 was 200 nM and the Emax turned out to be 91%. The Emax on OGA amounted to 45%.

These data come from patent publication US20210277015A1, “OGA INHIBITOR COMPOUNDS” (Janssen Pharmaceutica NV, priority 2018, published 2021).
